Assays:
HEK293 cells [1] = test: Preliminary screening as mRNA vectors, EGFP mRNA transfection of HEK293 cells; assay type: cell-based; conditions: HEK293 cells, 96-well plates, EGFP mRNA 50 ng per well; percentage of GFP fluorescent cells relative to total number of cells (Hoechst)
Method in brief: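 Each well of HEK293 cells received 50 ng of EGFP mRNA. Efficiency was expressed as percent GFP-expressing cells over Hoechst-defined total cell number.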

HEK293 cells [2] = test: Preliminary screening as DNA vectors, GFP transfection of HEK293 cells; assay type: cell-based; conditions: HEK293 cells; lipid/DOPE liposome with 75 ng plasmid DNA (psin-EGFP-IRES-Puro); number of cells expressing GFP divided by total number of nuclei (Hoechst)
Method in brief: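 Lipid + DOPE liposomes (NaOAc, pH 5.6) complexed w/ 75 ng psin-EGFP-IRES-Puro, 30 min RT; added to 3-5×10^4 HEK293/well, 37° C. Hoechst 0.2 μg/mL at 20-24 h, imaged after further 20-24 h. Efficiency = GFP+ cells / total nuclei.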

SMILES | Absolute mRNA transfection efficiency in HEK293 cells (HEK293 cells [1]) | Absolute DNA transfection efficiency in HEK293 cells (HEK293 cells [2])
CCCCCCCCCCCCCCCSc1nc(NCC2CCN(C)CC2)nc(SCCCCCCCCCCCC)n1 [Compound S12S15D10] | 43.1% | 9.9%
CCCCCCCCCCCCCCCCNc1nc(NCCCCCC)nc(NCCCN(C)C)n1 [Compound N6N16D6] | 0.4% | 0.2%
CCCCCCCCCCCCNc1nc(NCCCCCCCCC)nc(NCCN2CCOCC2)n1 [Compound N9N12D2] | 0.8% | 0.0%
CCCCCCCCCCCCCCCCNc1nc(NCCN2CCN(C)CC2)nc(N(CCCCCCCCCCCC)CCCCCCCCCCCC)n1 [N16^2N12D5] | 0.0% | 0.6%
CCCCCCCCCCCCCNc1nc(NCCCCCCCCCCCCC)nc(NCCCN2CCOCC2)n1 [Compound N13N13D8] | 0.3% | 1.4%
CCCCCCCCCCCCCCCNc1nc(NCCN2CCOCC2)nc(N(CCCCCCCCCCCC)CCCCCCCCCCCC)n1 [N15^2N12D2] | 0.0% | 0.5%
CCCCCCCCCCCSc1nc(NCCN(C)C)nc(SCCCCCCCCC)n1 [Compound S9S11D1] | 3.0% | 9.5%
CCCCCCCCCCCCCCCCNc1nc(NCCCCCCCCC)nc(NCCN2CCN(C)CC2)n1 [Compound N9N16D5] | 0.0% | 0.0%
CCCCCCCCNc1nc(NCCCCCCCC)nc(NCCN2CCOCC2)n1 [Compound N8N8D2] | 0.0% | 0.0%
CCCCCCCNc1nc(NCCCCCC)nc(NCCCN(C)C)n1 [Compound N6N7D6] | 0.1% | 0.0%
CCCCCCCCCCCCCCCCSc1nc(NCCCN(C)C)nc(SCCCCCCCC)n1 [Compound S8S16D6] | 61.0% | 33.0%
CCCCCCCCCCCCCCCNc1nc(NCCCCCCCCCCCC)nc(NCCCN(C)C)n1 [Compound N12N15D6] | 2.3% | 0.9%
CCCCCCCCNc1nc(NCCCCCC)nc(NCC2CCN(C)CC2)n1 [Compound N6N8D10] | 0.0% | 0.0%
CCCCCCCCCCCCCCCCCCNc1nc(NCCCCCCCCCCCCCCC)nc(NCCCN(C)C)n1 [Compound N15N18D6] | 8.6% | 0.6%
CCCCCCCCCCCCNc1nc(NCCCCCCC)nc(NCCN(C)C)n1 [Compound N7N12D1] | 0.1% | 0.2%
CCCCCCCCCCSc1nc(NCCN(C)C)nc(SCCCCCCCCC)n1 [Compound S9S10D1] | 5.0% | 8.6%
CCCCCCCCCCCCCCCCCCNc1nc(NCCCCCCCCCCCC)nc(NCCCN(C)C)n1 [Compound N12N18D6] | 4.8% | 1.5%
CCCCCCCCCCCCCCCCSc1nc(NCCCN2CCN(C)CC2)nc(SCCCCCCCCCCC)n1 [Compound S11S16D9] | 16.4% | 3.6%
CCCCCCCCCCCCNc1nc(NCCCCCCCCCCC)nc(NCCCN2CCOCC2)n1 [Compound N11N12D8] | 2.8% | 0.0%
CCCCCCCCCCCCCCCCCCSc1nc(NCCCN2CCN(C)CC2)nc(SCCCCCCCCCCCC)n1 [Compound S12S18D9] | 0.0% | 1.0%
CCCCCCCCCCCCCCCNc1nc(NCCCCCCC)nc(NCCCN2CCN(C)CC2)n1 [Compound N7N15D9] | 0.7% | 0.6%
CCCCCCCCCCCCCCCCNc1nc(NCCCCCCCCCCC)nc(NCCCN(C)C)n1 [Compound N11N16D6] | 1.4% | 0.2%
CCCCCCCCCCCCN(CCCCCCCCCCCC)c1nc(NCCCCCC)nc(NCCN2CCN(C)CC2)n1 [N6^2N12D5] | 0.0% | 0.2%
CCCCCCCCCCCNc1nc(NCCCCCC)nc(NCC2CCN(C)CC2)n1 [Compound N6N11D10] | 0.0% | 0.0%

— patent US20230123334A1, “AMINO LIPID COMPOUND, PREPARATION METHOD THEREFOR, AND APPLICATION THEREOF” (SHENZHEN SHENXIN BIOTECHNOLOGY CO., LTD., priority 2020, published 2023)
